Reference: US8466145B2, “Dipeptidyl peptidase IV inhibitors” (Orchid Chemicals & Pharmaceuticals Limited, priority 2009, dated 2013)
Where a name gives a salt, the structure may show the parent alone.

Test system: not given
Test: not given
Conditions: not given

SMILES | melting point
CC1(C)[C@@H](NCC(=O)N2CCC[C@H]2C#N)CC[C@@]1(C)c1nc(-c2ccc(F)cc2)no1 (as salt: methanesulfonate) [Example 66, (S)-1-(2-((1S,3R)-3-(3-(4-Fluorophenyl)-1,2,4-oxadiazol-5-yl)-2,2,3-trimethylcyclopentylamino)acetyl)pyrrolidine-2-carbonitrile methanesulfonate] | 206 to 211 °C
CN1C(=O)[C@]2(C)CC[C@](NCC(=O)N3CCC[C@H]3C#N)(C1=O)C2(C)C [Example 75, (S)-1-(2-((1R,5R)-3,5,8,8-Tetramethyl-2,4-dioxo-3-azabicyclo[3.2.1]octan-1-ylamino)acetyl)pyrrolidine-2-carbonitrile] | 141 to 144 °C
CC1(C)[C@@]2(C)CC[C@]1(NCC(=O)N1CCC[C@H]1C#N)C(=O)OC2 [Example 79, (S)-1-(2-((1R,5R)-5,8,8-Trimethyl-2-oxo-3-oxabicyclo[3.2.1]octan-1-ylamino)acetyl)pyrrolidine-2-carbonitrile] | 174 to 177 °C
CC1(C)[C@@H](CS(=O)(=O)c2ccc(S(C)(=O)=O)cc2)CC[C@@]1(C)NCC(=O)N1C[C@H](F)C[C@H]1C#N [Example 43, (2S,4R)-4-Fluoro-1-(2-((1R,3S)-1,2,2-trimethyl-3-((4-(methylsulfonyl)phenylsulfonyl)methyl)cyclopentylamino)acetyl)pyrrolidine-2-carbonitrile] | 163 to 166 °C

Next, values leading:

melting point | SMILES
126 to 128 °C | CC1(C)[C@@H](CN2CCCS2(=O)=O)CC[C@@]1(C)NCC(=O)N1C[C@@H](F)C[C@H]1C#N [Example 28, (2S,4S)-1-(2-((1R,3S)-3-[(1,1-Dioxidoisothiazolidin-2-yl)methyl]-1,2,2-trimethylcyclopentylamino)acetyl)-4-fluoropyrrolidine-2-carbonitrile]
210 to 214 °C | CC1(C)[C@@H](Cn2cnnn2)CC[C@@]1(C)NCC(=O)N1C[C@@H](F)C[C@H]1C#N (as salt: methanesulfonate) [Example 31, (2S,4S)-1-(2-((1R,3S)-3-((1H-Tetrazol-1-yl)methyl)-1,2,2-trimethylcyclopentylamino)acetyl)-4-fluoropyrrolidine-2-carbonitrile methanesulfonate]
150 to 155 °C | CC1(C)[C@@H](Cn2cncn2)CC[C@@]1(C)NCC(=O)N1CCC[C@H]1C#N (as salt: methanesulfonate) [Example 9, (S)-1-(2-((1R,3S)-3-((1H-1,2,4-Triazol-1-yl)methyl)-1,2,2-trimethylcyclopentylamino)acetyl)pyrrolidine-2-carbonitrilemethanesulfonate]

Biological target: T1, human recombinant Dipeptidyl peptidase IV enzyme (hrDPP IV) (Homo sapiens, UniProt P27487)
T1 construct: purchased R&D systems
T1 sequence (P27487 whole entry): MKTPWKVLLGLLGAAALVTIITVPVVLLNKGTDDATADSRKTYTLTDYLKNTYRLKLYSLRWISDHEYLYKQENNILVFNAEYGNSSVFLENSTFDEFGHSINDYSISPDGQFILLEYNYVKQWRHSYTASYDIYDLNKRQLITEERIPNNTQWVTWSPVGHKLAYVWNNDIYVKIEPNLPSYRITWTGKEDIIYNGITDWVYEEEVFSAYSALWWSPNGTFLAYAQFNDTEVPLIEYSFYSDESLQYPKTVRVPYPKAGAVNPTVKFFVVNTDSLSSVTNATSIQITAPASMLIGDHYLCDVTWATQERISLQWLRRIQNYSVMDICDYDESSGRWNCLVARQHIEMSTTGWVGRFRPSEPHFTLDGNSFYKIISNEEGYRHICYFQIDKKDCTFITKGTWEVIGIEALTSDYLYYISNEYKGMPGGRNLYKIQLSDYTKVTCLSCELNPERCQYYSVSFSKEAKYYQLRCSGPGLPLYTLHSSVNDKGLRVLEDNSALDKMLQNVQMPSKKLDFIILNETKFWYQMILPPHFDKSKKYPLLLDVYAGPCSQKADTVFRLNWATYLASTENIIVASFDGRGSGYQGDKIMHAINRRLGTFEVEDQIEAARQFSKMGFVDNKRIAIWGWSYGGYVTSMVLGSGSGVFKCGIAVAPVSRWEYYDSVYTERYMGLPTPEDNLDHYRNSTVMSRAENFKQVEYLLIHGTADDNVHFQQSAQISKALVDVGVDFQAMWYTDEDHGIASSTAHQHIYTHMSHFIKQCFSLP
Test: DPP IV assay, cleavage of H-Gly-Pro-AMC by human recombinant DPP-IV enzyme
Assay type: biochemical
Conditions: not given
Experimental: DPP IV activity was determined by the cleavage rate of 7-amino 4-methylcoumarin (AMC) from the substrate H-Gly-Pro-AMC. In brief, the assay was conducted by adding 3 ng of human recombinant Dipeptidyl peptidase IV enzyme (hrDPP IV, available commercially from R&D systems) in 70 μL of the assay buffer (25 mM HEPES, 140 mM NaCl and 1% BSA, pH 7.8) to a 96 well black flat bottom microtitre plate. Test compounds were added as 10 μL additions to all wells except blank and total activity wells. After incubation of test substance with enzyme for 60 minutes at room temperature, 10 μL of 100 μM substrate H-Gly-Pro-AMC was added. After mixing, the plate was left for 20 minutes at room temperature. Then the reaction was terminated by addition of 10 μL of 25% glacial acetic acid. Fluorescence was measured using Spectra Max Gemini XS (Molecular Devices, USA) at an excitation filter of 360 nm and emission filter of 460 nm.
Test compounds dissolved in DMSO were diluted with assay buffer at different concentrations and tested in duplicates. Percentage inhibition was calculated with respect to total activity. IC50 value was calculated using Prism Software.

SMILES | IC50
CC1(C)[C@H](CNc2ccc(C#N)cn2)CC[C@]1(C)NCC(=O)N1C[C@@H](F)C[C@H]1C#N [Example 25, 6-(((1R,3S)-3-(2-((2S,4S)-2-Cyano-4-fluoropyrrolidin-1-yl)-2-oxoethylamino)-2,2,3-trimethylcyclopentyl)methylamino)nicotinonitrile] | 29.4 nM
CC1(C)[C@@H](CNS(=O)(=O)c2ccc(F)cc2)CC[C@@]1(C)NCC(=O)N1C[C@@H](F)C[C@H]1C#N [Example 19, N-(((1S,3R)-3-(2-((2S,4S)-2-Cyano-4-fluoropyrrolidin-1-yl)-2-oxoethylamino)-2,2,3-trimethylcyclopentyl)methyl)-4-fluorobenzenesulfonamide] | 304.8 ± 2.1 nM
CC1(C)[C@@H](CN2CCOCC2)CC[C@@]1(C)NCC(=O)N1C[C@@H](F)C[C@H]1C#N [Example 33, (2S,4S)-4-Fluoro-1-(2-((1R,3S)-1,2,2-trimethyl-3-(morpholinomethyl)cyclopentylamino)acetyl)pyrrolidine-2-carbonitrile] | 250 nM
CC1(C)[C@@H](CNc2ccc(C#N)cn2)CC[C@@]1(C)NCC(=O)N1C[C@@H](F)C[C@H]1C#N [Example 24, 6-(((1S,3R)-3-(2-((2S,4S)-2-Cyano-4-fluoropyrrolidin-1-yl)-2-oxoethylamino)-2,2,3-trimethylcyclopentyl)methylamino)nicotinonitrile] | 134 nM

Next, values leading:

IC50 | SMILES
183 nM | CC1(C)[C@@H](CN2CCCS2(=O)=O)CC[C@@]1(C)NCC(=O)N1C[C@@H](F)C[C@H]1C#N [Example 28, (2S,4S)-1-(2-((1R,3S)-3-[(1,1-Dioxidoisothiazolidin-2-yl)methyl]-1,2,2-trimethylcyclopentylamino)acetyl)-4-fluoropyrrolidine-2-carbonitrile]
781 ± 91.6 nM | CC1(C)[C@@H](Cn2cncn2)CC[C@@]1(C)NCC(=O)N1CCC[C@H]1C#N [Example 9, (S)-1-(2-((1R,3S)-3-((1H-1,2,4-Triazol-1-yl)methyl)-1,2,2-trimethylcyclopentylamino)acetyl)pyrrolidine-2-carbonitrilemethanesulfonate]
99.8 nM | CC1(C)[C@H](Cn2cncn2)CC[C@]1(C)NCC(=O)N1CCC[C@H]1C#N [Example 7, (S)-1-(2-((1S,3R)-3-((1H-1,2,4-Triazol-1-yl)methyl)-1,2,2-trimethylcyclopentylamino)acetyl)pyrrolidine-2-carbonitrile methanesulfonate]
123 nM | CC1(C)[C@H](Cn2cncn2)CC[C@]1(C)NCC(=O)N1CCC[C@H]1C#N [Example 6, (S)-1-(2-((1S,3R)-3-((1H-1,2,4-Triazol-1-yl)methyl)-1,2,2-trimethylcyclopentylamino)acetyl)pyrrolidine-2-carbonitrile]
27.8 nM | CC1(C)[C@H](Cn2ccnn2)CC[C@]1(C)NCC(=O)N1C[C@@H](F)C[C@H]1C#N [Example 13, (2S,4S)-1-(2-((1S,3R)-3-((1H-1,2,3-Triazol-1-yl)methyl)-1,2,2-trimethylcyclopentylamino)acetyl)-4-fluoropyrrolidine-2-carbonitrilemethane sulfonate]
264 nM | CC1(C)[C@@H](Cn2cnnn2)CC[C@@]1(C)NCC(=O)N1C[C@@H](F)C[C@H]1C#N [Example 31, (2S,4S)-1-(2-((1R,3S)-3-((1H-Tetrazol-1-yl)methyl)-1,2,2-trimethylcyclopentylamino)acetyl)-4-fluoropyrrolidine-2-carbonitrile methanesulfonate]
1170 ± 0.14 nM | CC1(C)[C@@H](Cn2cncn2)CC[C@@]1(C)NCC(=O)N1CCC[C@H]1C#N [Example 8, (S)-1-(2-((1R,3S)-3-((1H-1,2,4-Triazol-1-yl)methyl)-1,2,2-trimethyleyclopentylamino)acetyl)pyrrolidine-2-carbonitrile]
232 nM | CC1(C)[C@@H](Cn2ccnn2)CC[C@@]1(C)NCC(=O)N1C[C@@H](F)C[C@H]1C#N [Example 11, (2S,4S)-1-(2-((1R,3S)-3-((1H-1,2,3-Triazol-1-yl)methyl)-1,2,2-trimethylcyclopentylamino)acetyl)-4-fluoropyrrolidine-2-carbonitrile]

Same assay, conditions: 300 nM compound concentration

SMILES | inhibition at 0.3 µM
CN1C[C@]2(C)CC[C@](NCC(=O)N3CCC[C@H]3C#N)(C1)C2(C)C [Example 78, (S)-1-(2-((1R,5R)-3,5,8,8-Tetramethyl-3-azabicyclo[3.2.1]octan-1-ylamino)acetyl)pyrrolidine-2-carbonitrile] | 23.3%
CC1(C)[C@@H](CNS(C)(=O)=O)CC[C@@]1(C)NCC(=O)N1C[C@@H](F)C[C@H]1C#N [Example 17, N-(((1S,3R)-3-(2-((2S,4S)-2-Cyano-4-fluoropyrrolidin-1-yl)-2-oxoethylamino)-2,2,3-trimethylcyclopentyl)methyl)methanesulfonamide] | 46.6%
CC1(C)[C@@H](CN2CCC(O)CC2)CC[C@@]1(C)NCC(=O)N1C[C@@H](F)C[C@H]1C#N [Example 41, (2S,4S)-4-Fluoro-1-(2-((1R,3S)-3-((4-hydroxypiperidin-1-yl)methyl)1,2,2-trimethylcyclopentylamino)acetyl)pyrrolidine-2-carbonitrile] | 26.1%
CC1(C)[C@@]2(C)CC[C@]1(NCC(=O)N1CCC[C@H]1C#N)COC2 [Example 80, (S)-1-(2-((1R,5R)-5,8,8-Trimethyl-3-oxabicyclo[3.2.1]octan-1-ylamino)acetyl)pyrrolidine-2-carbonitrile] | 2.28%
CC1(C)[C@@H](CC#N)CC[C@@]1(C)NCC(=O)N1C[C@@H](F)C[C@H]1C#N [Example 53, (2S,4S)-1-(2-((1R,3R)-3-(Cyanomethyl)-1,2,2-trimethylcyclopentylamino)acetyl)-4-fluoropyrrolidine-2-carbonitrile] | 56.5%
CC1(C)[C@H](CN2CCCCC2)CC[C@]1(C)NCC(=O)N1C[C@@H](F)C[C@H]1C#N [Example 40, (2S,4S)-4-Fluoro-1-(2-((1S,3R)-1,2,2-trimethyl-3-(piperidin-1-ylmethyl)cyclopentylamino)acetyl)pyrrolidine-2-carbonitrile] | 84.7%
CC1(C)[C@@H](C(=O)N2CCCCC2)CC[C@@]1(C)NCC(=O)N1C[C@@H](F)C[C@H]1C#N [Example 14, (2S,4S)-4-Fluoro-1-(2-((1R,3S)-1,2,2-trimethyl-3-(piperidine-1-carbonyl)cyclopentylamino)acetyl)pyrrolidine-2-carbonitrile] | 73.2%
CC1(C)[C@]2(C)CC[C@@]1(NCC(=O)N1C[C@@H](F)C[C@H]1C#N)COC2 [Example 82, (2S,4S)-4-Fluoro-1-(2-((1S,5S)-5,8,8-trimethyl-3-oxabicyclo[3.2.1]octan-1-ylamino)acetyl)pyrrolidine-2-carbonitrile] | 22.4%
CC1(C)[C@@]2(C)CC[C@]1(NCC(=O)N1C[C@@H](F)C[C@H]1C#N)COC2 [Example 81, (2S,4S)-4-Fluoro-1-(2-((1R,5R)-5,8,8-trimethyl-3-oxabicyclo[3.2.1]octan-1-ylamino)acetyl)pyrrolidine-2-carbonitrile] | 21.3%
